Reference: ChEMBL document CHEMBL1201862, “PubChem BioAssay data set” (2004)
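Step 1: Grow cells in 96-well plates. Step 2: Expose to compound for 48 hours at 5 concentrations. Step 3: Interpolate endpoints linearly; if unreached, use highest concentration. GI50 = concentration required for 50% inhibition of growth.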 Activity calls are given as the source filed them. No stated cut-off is given here; in the data, active = GI50 up to about 1.1 µM and inactive = higher.

Assays:
Assay in all cases: DTP human tumour cell line panel, 48 h
[1] = test system: M14
[2] = test system: MDA-N
[3] = test system: SF-295
[4] = test system: Hs-578T
[5] = test system: CAKI-1
[6] = test system: A549
[7] = test system: U-251
[8] = test system: SF-539
[9] = test system: HCT-15
[10] = test system: OVCAR-5
[11] = test system: T47D
[12] = test system: NCI/ADR-RES
[13] = test system: SNB-19
[14] = test system: SK-OV-3
[15] = test system: ACHN
[16] = test system: CCRF-CEM
[17] = test system: IGROV-1
[18] = test system: NCI-H226
[19] = test system: 786-0
[20] = test system: RPMI-8226
[21] = test system: NCI-H460
[22] = test system: NCI-H522
[23] = test system: HCC 2998
[24] = test system: A498
[25] = test system: SK-MEL-28
[26] = test system: HCT-116
[27] = test system: COLO 205
[28] = test system: MDA-MB-435
[29] = test system: UACC-257
[30] = test system: SNB-75
[31] = test system: EKVX
[32] = test system: DU-145
[33] = test system: MOLT-4
[34] = test system: SW-620
[35] = test system: BT-549
[36] = test system: NCI-H23
[37] = test system: LOX IMVI
[38] = test system: OVCAR-3
[39] = test system: MDA-MB-231
[40] = test system: SF-268
[41] = test system: TK-10
[42] = test system: SN12C
[43] = test system: SK-MEL-5
[44] = test system: OVCAR-8
[45] = test system: Malme-3M
[46] = test system: OVCAR-4
[47] = test system: UACC-62
[48] = test system: PC-3
[49] = test system: UO-31
[50] = test system: KM12
[51] = test system: MCF7
[52] = test system: HOP-92
[53] = test system: HT-29
[54] = test system: SK-MEL-2
[55] = test system: RXF 393
[56] = test system: K562
[57] = test system: SR
[58] = test system: HOP-62

COc1ccccc1C(=O)N(C)c1ccc(Cl)c(C(=O)OC(C)C)c1
GI50 [1]: 68.9 µM (inactive)
GI50 [2]: 40.8 µM (inactive)
GI50 [3]: 30.6 µM (inactive)
GI50 [4]: > 100 µM (inactive)
GI50 [5]: > 100 µM (inactive)
GI50 [6]: 49.9 µM (inactive)
GI50 [7]: 67.8 µM (inactive)
GI50 [8]: > 100 µM (inactive)
GI50 [9]: 39.5 µM
GI50 [10]: > 100 µM (inactive)
GI50 [11]: 23.8 µM (inactive)
GI50 [12]: 52.1 µM (inactive)
GI50 [13]: > 100 µM (inactive)
GI50 [14]: 45.5 µM (inactive)
GI50 [15]: 84.9 µM (inactive)
GI50 [16]: > 100 µM (inactive)
GI50 [17]: > 100 µM (inactive)
GI50 [18]: > 100 µM (inactive)
GI50 [19]: 36.2 µM (inactive)
GI50 [20]: 39.4 µM (inactive)
GI50 [21]: 42 µM (inactive)
GI50 [22]: 39.5 µM (inactive)
GI50 [23]: 27 µM (inactive)
GI50 [24]: 70.6 µM (inactive)
GI50 [25]: 49.7 µM (inactive)
GI50 [26]: 40.3 µM (inactive)
GI50 [27]: 42.9 µM (inactive)
GI50 [28]: 29.4 µM (inactive)
GI50 [29]: 23.1 µM (inactive)
GI50 [30]: 30.7 µM (inactive)
GI50 [31]: 44.2 µM (inactive)
GI50 [32]: 42.5 µM (inactive)
GI50 [33]: 39.7 µM (inactive)
GI50 [34]: 46.6 µM (inactive)
GI50 [35]: 33 µM (inactive)
GI50 [36]: 49.2 µM (inactive)
GI50 [37]: 87.3 µM (inactive)
GI50 [38]: 71.3 µM (inactive)
GI50 [39]: > 100 µM (inactive)
GI50 [40]: 95.9 µM (inactive)
GI50 [41]: 34 µM (inactive)
GI50 [42]: > 100 µM (inactive)
GI50 [43]: 22.8 µM (inactive)
GI50 [44]: > 100 µM (inactive)
GI50 [45]: > 100 µM (inactive)
GI50 [46]: 35.6 µM (inactive)
GI50 [47]: 48.8 µM (inactive)
GI50 [48]: 31.8 µM (inactive)
GI50 [49]: 28.7 µM (inactive)
GI50 [50]: 23.3 µM (inactive)
GI50 [51]: 62.4 µM (inactive)
GI50 [52]: 48.2 µM (inactive)
GI50 [53]: > 100 µM (inactive)
GI50 [54]: 61.5 µM (inactive)

CC(C)=CC1C(C(=O)OCc2cc3c(cc2Cl)OCO3)C1(C)C (configuration not stated)
GI50 [1]: 36.7 µM (inactive)
GI50 [2]: 24.7 µM (inactive)
GI50 [3]: 26.3 µM (inactive)
GI50 [4]: 21.9 µM (inactive)
GI50 [5]: 56.1 µM (inactive)
GI50 [6]: 31.5 µM (inactive)
GI50 [7]: 12.6 µM (inactive)
GI50 [9]: 30.1 µM
GI50 [10]: 39.2 µM (inactive)
GI50 [11]: 17.3 µM (inactive)
GI50 [12]: 42.8 µM (inactive)
GI50 [13]: > 100 µM (inactive)
GI50 [15]: 28.7 µM (inactive)
GI50 [16]: 32.6 µM (inactive)
GI50 [17]: 20 µM (inactive)
GI50 [18]: 39.6 µM (inactive)
GI50 [19]: 28.4 µM (inactive)
GI50 [21]: 24.4 µM (inactive)
GI50 [22]: 15.1 µM (inactive)
GI50 [23]: 17 µM (inactive)
GI50 [24]: 26.9 µM (inactive)
GI50 [25]: 54.1 µM (inactive)
GI50 [26]: 26.4 µM (inactive)
GI50 [55]: 44.1 µM (inactive)
GI50 [28]: 33.7 µM (inactive)
GI50 [29]: 12.6 µM (inactive)
GI50 [30]: 26.9 µM (inactive)
GI50 [31]: 13.5 µM (inactive)
GI50 [32]: > 100 µM (inactive)
GI50 [33]: 13.1 µM (inactive)
GI50 [34]: 55.7 µM (inactive)
GI50 [35]: 63 µM (inactive)
GI50 [36]: 25.8 µM (inactive)
GI50 [37]: 16.6 µM (inactive)
GI50 [38]: 20.6 µM (inactive)
GI50 [39]: 13.5 µM (inactive)
GI50 [40]: 39.7 µM (inactive)
GI50 [56]: 20.1 µM (inactive)
GI50 [41]: 63.2 µM (inactive)
GI50 [42]: 28.6 µM (inactive)
GI50 [57]: 15.7 µM (inactive)
GI50 [43]: 16.7 µM (inactive)
GI50 [44]: 44.3 µM (inactive)
GI50 [45]: 15.5 µM (inactive)
GI50 [58]: 22.7 µM (inactive)
GI50 [46]: 49.8 µM (inactive)
GI50 [47]: 43.1 µM (inactive)
GI50 [48]: 11.5 µM (inactive)
GI50 [49]: 46.1 µM (inactive)
GI50 [50]: 27.7 µM (inactive)
GI50 [52]: 31.7 µM (inactive)
GI50 [53]: 23.1 µM (inactive)
GI50 [54]: 6.4 µM (inactive)
